Patent US20080227655A1, “Assessment of effect of an agent on a human biological condition using rodent gene expression panels” (priority 2006, published 2008)
Values joined by “and” are separate entries in the source; they are usually repeats but may differ in a detail not shown here. Identical values can stand only once.

System: custom murine 40-gene Precision Profile for Rheumatoid Arthritis, whole blood
Experiment: KRN (K/BxN) serum transfer induced arthritis model, whole blood gene expression by QPCR, vehicle or dexamethasone treatment
Assay type: in vivo, female BALB/c mice
Conditions: for ABCA1_M Normalized CT Value (Delta CT) / APAF1_M Normalized CT Value (Delta CT) / ARG2_M Normalized CT Value (Delta CT) / CASP1_M Normalized CT Value (Delta CT) / CASP3_M Normalized CT Value (Delta CT) / CCR3_M Normalized CT Value (Delta CT) / CD3Z_M Normalized CT Value (Delta CT) / CD8A_M Normalized CT Value (Delta CT) / CD14_M Normalized CT Value (Delta CT) / CD19_M Normalized CT Value (Delta CT) / CD86_M Normalized CT Value (Delta CT) / CSPG2_M Normalized CT Value (Delta CT) / F3_M Normalized CT Value (Delta CT) / HMOX1_M Normalized CT Value (Delta CT) / HSPA1A—M Normalized CT Value (Delta CT) / ICAM1—M Normalized CT Value (Delta CT) / IFI16—M Normalized CT Value (Delta CT) / IL1B_M Normalized CT Value (Delta CT) / IL10_M Normalized CT Value (Delta CT): whole blood
Protocol: Whole blood gene expression changes were evaluated in vehicle control and drug-treated murine subjects across two murine models of arthritis according to the following arthritis models:
KRN Transgenic Mouse (K/B×N): K/B×N serum from transgenic mouse used to induce arthritis in female BALB/c mice (n=54). Collagen Induced Arthritis (CIA): Bovine type II collagen used to induce arthritis in male DBA/1 mice (n=54).
In addition, naïve, untreated animal groups at baseline and terminal day were included to control for potential age-related changes in gene expression over the extended study periods. Animal groups, time-points, and treatment schedules are summarized in Tables 20A and 20B, respectively.
Whole blood samples from animals were collected by retro-orbital bleed at selected time-points in accordance with the arthritis study schemas described in […], and transferred into sample collection tubes containing a 1.5× lysis solution and RPMI. Samples were processed into total RNA and cDNA. […] It was anticipated from these murine models would provide a better understanding of the relevant molecular response of arthritis induction and their potential correlation to the human disease condition.
Normal murine subject reference values (represented as normalized Ct or ΔCt values) were established for male DBA/1 mice (n=6 for the CIA study arm) and female BALB/c mice (n=6 for the KRN study arm). In both arms of the study, gene expression response of normal (naïve, non-immunized and untreated) murine subjects were evaluated in groups of 6 each at day 0 and day 60 for the CIA study arm, and at day 0 and day 21 for the KRN study arm (see Tables 20A and 20B).
Gene expression responses for the arthritis-induced murine model were evaluated for untreated mice at day 3 and vehicle-treated mice at days 7, 14 and 21 to characterize disease progression.

[1] = KRN Day 14, Dex-treated, individual murine subject
[2] = KRN Day 14, Dex-treated, individual murine subject, listed as Dex
[3] = KRN Day 14 Dex, individual mouse, listed as Dex
[4] = KRN Day 21, Dex-treated, group Average
[5] = KRN Day 21, Dex-treated, individual murine subject, listed as Dex
[6] = KRN Day 21 Dex, individual mouse, listed as Dex

SMILES: C[C@@H]1C[C@H]2[C@@H]3CCC4=CC(=O)C=C[C@]4(C)[C@@]3(F)[C@@H](O)C[C@]2(C)[C@@]1(O)C(=O)CO [Dexamethasone]
- Normalized CT Value (Delta CT) TLR4_M [1]: 18.49
- Normalized CT Value (Delta CT) TNFSF5—M [1]: 19.61
- Normalized CT Value (Delta CT) TNF_M [1]: 20.58
- Normalized CT Value (Delta CT) VEGF_M [1]: 20.76
- Normalized CT Value (Delta CT) IL1RAP_M [2]: 18.49 and 19.00 and 18.48 and 18.13 and 18.59 and 18.81
- Normalized CT Value (Delta CT) IL1RN—M [2]: 17.70 and 17.88 and 17.80 and 17.59 and 17.72 and 17.52
- Normalized CT Value (Delta CT) IL6_M [2]: 25.39 and 25.69 and 25.54 and 25.34 and 25.89 and 25.05
- Normalized CT Value (Delta CT) JUN_M [2]: 19.76 and 19.88 and 19.77 and 19.35 and 19.58 and 19.68
- Normalized CT Value (Delta CT) MEF2C—M [2]: 20.59 and 19.97 and 20.74 and 19.83 and 20.88 and 19.95
- Normalized CT Value (Delta CT) MMP9—M [2]: 14.51 and 14.33 and 14.28 and 14.07 and 14.70 and 14.83
- Normalized CT Value (Delta CT) NFKB1—M [2]: 17.37 (2×) and 17.12 and 17.30 and 16.77 and 17.79
- Normalized CT Value (Delta CT) PADI4—M [2]: 18.74 and 18.78 and 18.81 and 18.39 and 18.98 and 19.03
- Normalized CT Value (Delta CT) PLA2G7—M [2]: 15.31 and 15.29 and 15.04 and 14.93 and 15.33 and 15.36
- ABCA1_M Normalized CT Value (Delta CT) (KRN Day 14 Dex, group Average): 18.74
- APAF1_M Normalized CT Value (Delta CT) (KRN Day 14 Dex, group Average): 19.47
- ARG2_M Normalized CT Value (Delta CT) (KRN Day 14 Dex, group Average): 17.37
- CASP1_M Normalized CT Value (Delta CT) (KRN Day 14 Dex, group Average): 19.02
- CASP3_M Normalized CT Value (Delta CT) (KRN Day 14 Dex, group Average): 17.77
- CCR3_M Normalized CT Value (Delta CT) (KRN Day 14 Dex, group Average): 19.21
- CD3Z_M Normalized CT Value (Delta CT) (KRN Day 14 Dex, group Average): 17.27
- CD8A_M Normalized CT Value (Delta CT) (KRN Day 14 Dex, group Average): 18.32
- CD14_M Normalized CT Value (Delta CT) (KRN Day 14 Dex, group Average): 19.94
- CD19_M Normalized CT Value (Delta CT) (KRN Day 14 Dex, group Average): 17.52
- CD86_M Normalized CT Value (Delta CT) (KRN Day 14 Dex, group Average): 23.30
- CSPG2_M Normalized CT Value (Delta CT) (KRN Day 14 Dex, group Average): 20.94
- F3_M Normalized CT Value (Delta CT) (KRN Day 14 Dex, group Average): 23.16
- HMOX1_M Normalized CT Value (Delta CT) (KRN Day 14 Dex, group Average): 18.18
- HSPA1A—M Normalized CT Value (Delta CT) (KRN Day 14 Dex, group Average): 21.59
- ICAM1—M Normalized CT Value (Delta CT) (KRN Day 14 Dex, group Average): 19.42
- IFI16—M Normalized CT Value (Delta CT) (KRN Day 14 Dex, group Average): 17.45
- IL1B_M Normalized CT Value (Delta CT) (KRN Day 14 Dex, group Average): 14.29
- IL10_M Normalized CT Value (Delta CT) (KRN Day 14 Dex, group Average): 25.56
- ABCA1_M Normalized CT Value (Delta CT) [3]: 18.85 and 18.64 and 18.31 and 18.46 and 19.46 and 18.75
- APAF1_M Normalized CT Value (Delta CT) [3]: 19.78 and 19.62 and 19.16 and 19.37 and 19.43
- ARG2_M Normalized CT Value (Delta CT) [3]: 17.30 and 17.84 and 17.05 and 16.89 and 17.70 and 17.43
- CASP1_M Normalized CT Value (Delta CT) [3]: 19.00 and 18.87 and 18.99 and 19.15 and 19.23 and 18.90
- CASP3_M Normalized CT Value (Delta CT) [3]: 17.98 and 17.63 and 17.87 and 17.16 and 17.93 and 18.06
- CCR3_M Normalized CT Value (Delta CT) [3]: 19.56 and 18.34 and 19.23 and 18.45 and 19.90 and 19.79
- CD3Z_M Normalized CT Value (Delta CT) [3]: 17.27 and 17.38 and 17.23 and 16.92 and 18.16 and 16.68
- CD8A_M Normalized CT Value (Delta CT) [3]: 18.76 and 18.05 and 18.11 and 17.83 and 19.21 and 17.94
- CD14_M Normalized CT Value (Delta CT) [3]: 19.50 and 20.04 and 19.93 and 20.22 and 19.63 and 20.29
- CD19_M Normalized CT Value (Delta CT) [3]: 17.84 and 17.32 (2×) and 18.33 and 17.39
- CD86_M Normalized CT Value (Delta CT) [3]: 23.63 and 23.21 and 23.28 and 22.53 and 23.60 and 23.56
- CSPG2_M Normalized CT Value (Delta CT) [3]: 21.74 and 21.15 and 20.43 and 21.79 and 19.79 and 20.71
- F3_M Normalized CT Value (Delta CT) [3]: 22.18 and 23.66 and 21.85 and 24.55 and 21.66 and 25.05
- HMOX1_M Normalized CT Value (Delta CT) [3]: 17.83 and 18.22 and 17.82 and 18.09 and 18.31 and 18.81
- HSPA1A—M Normalized CT Value (Delta CT) [3]: 21.44 and 22.20 and 21.91 and 21.55 and 20.95 and 21.51
- ICAM1—M Normalized CT Value (Delta CT) [3]: 19.58 and 19.31 and 19.39 and 19.05 and 19.89 and 19.28
- IFI16—M Normalized CT Value (Delta CT) [3]: 17.64 and 17.26 and 17.87 and 16.81 and 18.04 and 17.08
- IL1B_M Normalized CT Value (Delta CT) [3]: 14.31 and 14.48 (2×) and 14.19 and 14.00 and 14.25
- IL10_M Normalized CT Value (Delta CT) [3]: 25.62 and 25.82 and 25.58 and 25.54 and 25.73 and 25.10
- Normalized CT Value (Delta CT) IL1RAP_M [4]: 19.02
- Normalized CT Value (Delta CT) IL1RN—M [4]: 18.13
- Normalized CT Value (Delta CT) IL6_M [4]: 25.28
- Normalized CT Value (Delta CT) JUN_M [4]: 20.06
- Normalized CT Value (Delta CT) MEF2C—M [4]: 20.90
- Normalized CT Value (Delta CT) MMP9—M [4]: 15.04
- Normalized CT Value (Delta CT) NFKB1—M [4]: 17.69
- Normalized CT Value (Delta CT) PADI4—M [4]: 18.92
- Normalized CT Value (Delta CT) PLA2G7—M [4]: 15.50
- Normalized CT Value (Delta CT) IL1RAP_M [5]: 19.08 and 19.03 and 18.86 and 19.29 and 18.97 and 18.89
- Normalized CT Value (Delta CT) IL1RN—M [5]: 17.95 (2×) and 18.43 and 17.84 and 18.46 and 18.15
- Normalized CT Value (Delta CT) IL6_M [5]: 25.40 and 25.42 and 24.75 and 25.06 and 25.35 and 25.72
- Normalized CT Value (Delta CT) JUN_M [5]: 20.06 and 20.45 and 20.53 and 19.72 and 19.52
- Normalized CT Value (Delta CT) MEF2C—M [5]: 21.26 (2×) and 20.26 and 21.57 and 20.41 and 20.64
- Normalized CT Value (Delta CT) MMP9—M [5]: 15.23 and 14.73 and 15.36 and 15.08 and 14.79
- Normalized CT Value (Delta CT) NFKB1—M [5]: 17.74 and 18.12 and 17.25 and 18.27 and 17.28 and 17.46
- Normalized CT Value (Delta CT) PADI4—M [5]: 19.00 and 18.36 and 19.37 and 18.97 and 19.13 and 18.69
- Normalized CT Value (Delta CT) PLA2G7—M [5]: 15.27 and 15.70 and 15.34 and 15.67 and 15.86 and 15.15
- ABCA1_M Normalized CT Value (Delta CT) (KRN Day 21 Dex, group Average): 19.00
- APAF1_M Normalized CT Value (Delta CT) (KRN Day 21 Dex, group Average): 19.85
- ARG2_M Normalized CT Value (Delta CT) (KRN Day 21 Dex, group Average): 17.59
- CASP1_M Normalized CT Value (Delta CT) (KRN Day 21 Dex, group Average): 19.48
- CASP3_M Normalized CT Value (Delta CT) (KRN Day 21 Dex, group Average): 18.35
- CCR3_M Normalized CT Value (Delta CT) (KRN Day 21 Dex, group Average): 19.66
- CD3Z_M Normalized CT Value (Delta CT) (KRN Day 21 Dex, group Average): 17.38
- CD14_M Normalized CT Value (Delta CT) (KRN Day 21 Dex, group Average): 20.44
- CD19_M Normalized CT Value (Delta CT) (KRN Day 21 Dex, group Average): 17.72
- CD86_M Normalized CT Value (Delta CT) (KRN Day 21 Dex, group Average): 23.73
- ABCA1_M Normalized CT Value (Delta CT) [6]: 19.52 and 19.29 and 18.57 and 19.09 and 18.61 and 18.92
- APAF1_M Normalized CT Value (Delta CT) [6]: 19.76 and 19.88 and 19.81 and 20.29 and 19.46 and 19.93
- ARG2_M Normalized CT Value (Delta CT) [6]: 17.45 and 17.78 and 17.56 and 17.29 and 18.09 and 17.36
- CASP1_M Normalized CT Value (Delta CT) [6]: 19.34 and 19.90 and 19.57 and 19.28 and 19.50 and 19.31
- CASP3_M Normalized CT Value (Delta CT) [6]: 18.21 and 18.52 (2×) and 18.24 and 18.02 and 18.60
- CCR3_M Normalized CT Value (Delta CT) [6]: 19.82 and 19.72 and 19.20 and 19.52 and 20.10 and 19.60
- CD3Z_M Normalized CT Value (Delta CT) [6]: 17.32 and 17.40 and 17.14 and 17.66 and 17.04 and 17.71
- CD14_M Normalized CT Value (Delta CT) [6]: 20.25 and 21.24 and 20.59 and 20.09 and 20.44 and 20.03
- CD19_M Normalized CT Value (Delta CT) [6]: 18.44 and 17.98 and 17.64 and 18.11
- CD86_M Normalized CT Value (Delta CT) [6]: 23.89 and 23.61 and 23.63 and 24.02 and 23.14 and 24.11
